Assay results: ChEMBL document CHEMBL1201862, “PubChem BioAssay data set” (2004)
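48-hour exposure; five concentrations; linearly interpolated endpoints. GI50 is the concentration that inhibits growth by half.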 Calls of active or inactive are those of the source. No stated cut-off is given here; in the data, active = GI50 up to about 1.1 µM and inactive = higher.

Columns and labels:
Assay in all cases: NCI tumour cell line growth inhibition, 48 h
[1] = tested on: HCT-15
[2] = tested on: NCI-H23
[3] = tested on: XF498
[4] = tested on: UO-31
[5] = tested on: NCI-H460
[6] = tested on: RPMI-8226
[7] = tested on: OVCAR-4
[8] = tested on: SF-295
[9] = tested on: SW-620
[10] = tested on: M14
[11] = tested on: RXF 631
[12] = tested on: HOP-92
[13] = tested on: SN12C
[14] = tested on: A498
[15] = tested on: M19-MEL
[16] = tested on: NCI-H226
[17] = tested on: LXFL 529
[18] = tested on: OVCAR-5
[19] = tested on: SNB-78
[20] = tested on: OVCAR-8
[21] = tested on: TK-10
[22] = tested on: UACC-62
[23] = tested on: EKVX
[24] = tested on: IGROV-1
[25] = tested on: 786-0
[26] = tested on: OVCAR-3
[27] = tested on: SNB-19
[28] = tested on: HT-29
[29] = tested on: DMS-114
[30] = tested on: HOP-18
[31] = tested on: COLO 205
[32] = tested on: DLD-1
[33] = tested on: SK-MEL-2
[34] = tested on: SF-539
[35] = tested on: HCT-116
[36] = tested on: ACHN
[37] = tested on: UACC-257
[38] = tested on: SK-OV-3
[39] = tested on: A549
[40] = tested on: HCC 2998
[41] = tested on: LOX IMVI
[42] = tested on: K562
[43] = tested on: MOLT-4
[44] = tested on: SF-268
[45] = tested on: Malme-3M
[46] = tested on: DMS-273
[47] = tested on: NCI-H522
[48] = tested on: KM-20L2
[49] = tested on: CCRF-CEM
[50] = tested on: CAKI-1
[51] = tested on: HL-60
[52] = tested on: U-251
[53] = tested on: KM12
[54] = tested on: HOP-62
[55] = tested on: RXF 393
[56] = tested on: SR
[57] = tested on: SK-MEL-5
[58] = tested on: SNB-75
[59] = tested on: SK-MEL-28
[60] = tested on: DU-145
[61] = tested on: MDA-MB-231
[62] = tested on: MDA-N
[63] = tested on: T47D
[64] = tested on: MDA-MB-435
[65] = tested on: BT-549
[66] = tested on: Hs-578T
[67] = tested on: PC-3

## COc1ccc(NC(=O)CC/C(CC(=O)c2ccco2)=N/NC(N)=S)cc1
[1]
  GI50: > 100 µM
[2]
  GI50: > 100 µM (inactive)
[3]
  GI50: > 100 µM (inactive)
[4]
  GI50: > 100 µM (inactive)
[5]
  GI50: > 100 µM (inactive)
[6]
  GI50: > 100 µM (inactive)
[7]
  GI50: > 100 µM (inactive)
[8]
  GI50: > 100 µM (inactive)
[9]
  GI50: > 100 µM (inactive)
[10]
  GI50: > 100 µM (inactive)
[11]
  GI50: > 100 µM (inactive)
[12]
  GI50: > 100 µM (inactive)
[13]
  GI50: > 100 µM (inactive)
[14]
  GI50: > 100 µM (inactive)
[15]
  GI50: > 100 µM (inactive)
[16]
  GI50: > 100 µM (inactive)
[17]
  GI50: > 100 µM (inactive)
[18]
  GI50: > 100 µM (inactive)
[19]
  GI50: > 100 µM (inactive)
[20]
  GI50: > 100 µM (inactive)
[21]
  GI50: > 100 µM (inactive)
[22]
  GI50: > 100 µM (inactive)
[23]
  GI50: > 100 µM (inactive)
[24]
  GI50: > 100 µM (inactive)
[25]
  GI50: > 100 µM (inactive)
[26]
  GI50: > 100 µM (inactive)
[27]
  GI50: > 100 µM (inactive)
[28]
  GI50: > 100 µM (inactive)
[29]
  GI50: > 100 µM (inactive)
[30]
  GI50: > 100 µM (inactive)
[31]
  GI50: > 100 µM (inactive)
[32]
  GI50: > 100 µM (inactive)
[33]
  GI50: > 100 µM (inactive)
[34]
  GI50: > 100 µM (inactive)
[35]
  GI50: > 100 µM (inactive)
[36]
  GI50: > 100 µM (inactive)
[37]
  GI50: > 100 µM (inactive)
[38]
  GI50: > 100 µM (inactive)
[39]
  GI50: > 100 µM (inactive)
[40]
  GI50: > 100 µM (inactive)
[41]
  GI50: > 100 µM (inactive)
[42]
  GI50: > 100 µM (inactive)
[43]
  GI50: > 100 µM (inactive)
[44]
  GI50: > 100 µM (inactive)
[45]
  GI50: > 100 µM (inactive)
[46]
  GI50: > 100 µM (inactive)
[47]
  GI50: > 100 µM (inactive)
[48]
  GI50: > 100 µM (inactive)
[49]
  GI50: > 100 µM (inactive)
[50]
  GI50: > 100 µM (inactive)
[51]
  GI50: > 100 µM (inactive)
[52]
  GI50: > 100 µM (inactive)
[53]
  GI50: > 100 µM (inactive)
[54]
  GI50: > 100 µM (inactive)

## CC/C(C)=C1\CCC(CN(C)C)C1=O (stereo unspecified)
[1]
  GI50: 15.8 µM
[2]
  GI50: 21.2 µM (inactive)
[3]
  GI50: 19.7 µM (inactive)
[4]
  GI50: 20.2 µM (inactive)
[5]
  GI50: 19.3 µM (inactive)
[6]
  GI50: 2.82 µM (inactive)
[7]
  GI50: 17.6 µM (inactive)
[8]
  GI50: > 100 µM (inactive)
[9]
  GI50: 22.9 µM (inactive)
[10]
  GI50: 19.5 µM (inactive)
[11]
  GI50: 19.9 µM (inactive)
[12]
  GI50: 23.2 µM (inactive)
[13]
  GI50: 20.1 µM (inactive)
[14]
  GI50: 20.6 µM (inactive)
[15]
  GI50: 18.1 µM (inactive)
[16]
  GI50: > 100 µM (inactive)
[17]
  GI50: 16.3 µM (inactive)
[18]
  GI50: 19.1 µM (inactive)
[19]
  GI50: 24.8 µM (inactive)
[55]
  GI50: 20.7 µM (inactive)
[20]
  GI50: 27.6 µM (inactive)
[21]
  GI50: 17.3 µM (inactive)
[22]
  GI50: 33.3 µM (inactive)
[23]
  GI50: 21.9 µM (inactive)
[24]
  GI50: 20 µM (inactive)
[25]
  GI50: 15.8 µM (inactive)
[26]
  GI50: 19.1 µM (inactive)
[27]
  GI50: > 100 µM (inactive)
[28]
  GI50: 23.1 µM (inactive)
[29]
  GI50: 23.4 µM (inactive)
[56]
  GI50: 19.3 µM (inactive)
[30]
  GI50: 18.2 µM (inactive)
[57]
  GI50: 33.3 µM (inactive)
[32]
  GI50: 16.4 µM (inactive)
[33]
  GI50: 17.6 µM (inactive)
[34]
  GI50: 18.7 µM (inactive)
[35]
  GI50: 17.8 µM (inactive)
[36]
  GI50: 18.9 µM (inactive)
[37]
  GI50: 17.3 µM (inactive)
[39]
  GI50: 22.9 µM (inactive)
[40]
  GI50: 25.2 µM (inactive)
[58]
  GI50: 16.3 µM (inactive)
[41]
  GI50: 20.6 µM (inactive)
[42]
  GI50: 20 µM (inactive)
[43]
  GI50: 26.7 µM (inactive)
[44]
  GI50: 25.4 µM (inactive)
[45]
  GI50: 22 µM (inactive)
[46]
  GI50: 18.9 µM (inactive)
[48]
  GI50: 21.7 µM (inactive)
[49]
  GI50: 15.9 µM (inactive)
[50]
  GI50: 1.91 µM (inactive)
[51]
  GI50: 18.4 µM (inactive)
[59]
  GI50: 22.9 µM (inactive)
[53]
  GI50: 15 µM (inactive)
[54]
  GI50: 42.2 µM (inactive)

## CCN(CC)CCNC(=O)c1nn(-c2ccc(Cl)cc2)c2c1CCc1cc(OC)ccc1-2
[1]
  GI50: 2.92 µM
[2]
  GI50: 12.8 µM (inactive)
[3]
  GI50: 5.14 µM (inactive)
[60]
  GI50: 15.3 µM (inactive)
[4]
  GI50: 2.49 µM (inactive)
[5]
  GI50: 4.51 µM (inactive)
[6]
  GI50: 2.9 µM (inactive)
[7]
  GI50: 8.04 µM (inactive)
[8]
  GI50: 3.74 µM (inactive)
[9]
  GI50: 3.26 µM (inactive)
[10]
  GI50: 2.38 µM (inactive)
[61]
  GI50: 12.1 µM (inactive)
[11]
  GI50: 1.65 µM (inactive)
[12]
  GI50: 5.51 µM (inactive)
[13]
  GI50: 10.4 µM (inactive)
[62]
  GI50: 3.51 µM (inactive)
[14]
  GI50: 8.61 µM (inactive)
[15]
  GI50: 2.7 µM (inactive)
[16]
  GI50: 9.38 µM (inactive)
[17]
  GI50: 4.74 µM (inactive)
[18]
  GI50: 4.75 µM (inactive)
[19]
  GI50: 7.67 µM (inactive)
[55]
  GI50: 3.04 µM (inactive)
[20]
  GI50: 12.3 µM (inactive)
[21]
  GI50: 11 µM (inactive)
[22]
  GI50: 2.77 µM (inactive)
[23]
  GI50: 10.2 µM (inactive)
[24]
  GI50: 12.8 µM (inactive)
[25]
  GI50: 3.52 µM (inactive)
[26]
  GI50: 7.24 µM (inactive)
[27]
  GI50: 10.5 µM (inactive)
[28]
  GI50: 2.64 µM (inactive)
[29]
  GI50: 2.67 µM (inactive)
[56]
  GI50: 4.28 µM (inactive)
[30]
  GI50: 15.2 µM (inactive)
[31]
  GI50: 2.26 µM (inactive)
[57]
  GI50: 1.74 µM (inactive)
[32]
  GI50: 3.54 µM (inactive)
[33]
  GI50: 1.68 µM (inactive)
[63]
  GI50: 4.3 µM (inactive)
[34]
  GI50: 4.21 µM (inactive)
[35]
  GI50: 3.56 µM (inactive)
[36]
  GI50: 11.4 µM (inactive)
[37]
  GI50: 1.82 µM (inactive)
[38]
  GI50: 13.7 µM (inactive)
[39]
  GI50: 8.22 µM (inactive)
[40]
  GI50: 2.34 µM (inactive)
[64]
  GI50: 9.98 µM (inactive)
[58]
  GI50: 5.21 µM (inactive)
[41]
  GI50: 2.03 µM (inactive)
[42]
  GI50: 2.77 µM (inactive)
[43]
  GI50: 5.75 µM (inactive)
[44]
  GI50: 7.19 µM (inactive)
[45]
  GI50: 1.6 µM (inactive)
[46]
  GI50: 2.62 µM (inactive)
[47]
  GI50: 4.52 µM (inactive)
[48]
  GI50: 1.64 µM (inactive)
[49]
  GI50: 5.3 µM (inactive)
[50]
  GI50: 8.41 µM (inactive)
[65]
  GI50: 17.4 µM (inactive)
[51]
  GI50: 2.7 µM (inactive)
[59]
  GI50: 2.03 µM (inactive)
[52]
  GI50: 5.43 µM (inactive)
[66]
  GI50: 3.26 µM (inactive)
[53]
  GI50: 6.53 µM (inactive)
[67]
  GI50: 12.6 µM (inactive)
[54]
  GI50: 13.3 µM (inactive)
